The subject of test [1] is C. albicans ATCC 24433. Put plainly: Checkerboard MIC assay, FICI. Type of test: cell-based, Candida albicans. The following applies: combination with Compound 1; C. albicans ATCC 24433. The text has this: (§1) The following assay was used to determine the minimum inhibitory concentration (MIC) and fractional inhibitory concentration index (FICI) for combinations of an antifungal agent and a glycopeptide antibacterial agent. This assay and methods for calculating FICI are well known in the art. See, for example, Eliopoulos, E. G. and R. Moellering, Jr. “Antimicrobial Combinations” in Antibiotics in Laboratory Medicine, edited by V. Lorian, 4th Ed., Williams & Wilkins, Baltimore, MD, pp. 330-396 (1996); […] et al., Antimicrobial Agents and Chemotherapy 47(4):1416-1418 (2003); or […] et al., Antimicrobial Agents and Chemotherapy 46(10):3323-3326 (2002). Procedures, protocols, supplies and equipment used in this assay follow the recommendations approved and published by the National Committee for Clinical Laboratory Standards (NCCLS), Wayne, Pa. as described in NCCLS 2003, “Reference Method for Broth Dilution Antimicrobial Susceptibility Tests for Bacteria that Grow Aerobically; Approved Standard” (NCCLS document M7-A6); NCCLS 2002, “Reference Method for Broth Dilution Antifungal Susceptibility Tests of Filamentous Fungi that Grow Aerobically; Approved Standard” (NCCLS document M38-A); and NCCLS 2002 “Reference Method for Broth Dilution Antifungal Susceptibility Tests of Yeast; Approved Standards-2nd Edition” (NCCLS document M27-A2). Using a checkerboard method, a 2-fold dilution 100× final concentration master plate was prepared using a 96-well U-shape microtiter plate and an appropriate solvent. In the “checkerboard” method, a microtiter plate is divided into “columns” in which each well in the column contains the same amount of an antifungal agent (Compound A) being diluted along the x-axis, and “rows” in which each well in the row contains the same amount of a glycopeptide antibacterial agent (Compound B) being diluted on the y-axis. Also included is a row (or column) for Compound A or B alone. The dilutions used in the checkerboard are exponential (by powers of two). The result is that each well in the microtiter plate contains a unique concentration of the two compounds being tested. […] After mixing, 100 μL of 2× drug combinations were distributed into 96-well microtiter plates. […] Compound A was not added to Column 12, so Column 12 contained only Compound B. Compound B was diluted from row A starting at 6,400 μg/mL down to row G (100 μg/mL). Wells in Row A contained a final concentration of 64 μg/mL of Compound B; Row B contained a final concentration of 32 μg/mL of Compound B; Row C contained a final concentration of 16 μg/mL of Compound B; etc. Compound B was not added to Row H, so Row H only contained Compound A. […] The MIC of the glycopeptide antibacterial agent determined from this experiment was used in FIC calculations. […] RPMI-1640 without sodium bicarbonate media (GIBCO-BRL, Carlsbad, Calif.), an enriched media formulated for mammalian cells, was used according to the NCCLS guidelines for yeast and filamentous fungi susceptibility testing. The medium was buffered with 0.165 M 3-[N-Morpholino]propanesulfonic acid (MOPS) supplemented with 20 g/L glucose and pH adjusted to 7.0 with hydrogen chloride. Sabouraud Dextrose Agar ([…] plates, and Potato Dextrose Agar (PDA) plates were purchased from Hardy Diagnostic (Santa Maria, Calif.). Yeast cultures were started from -80° C. frozen stock streaked on […] incubated at 35° C. under aerobic conditions for 24 h. The […] in the refrigerator for up to 2 weeks and used regularly as a starting culture. About 24 to 48 h before each assay was run, yeasts were streaked on SDA plates for isolated colonies. To prepare the inoculum, from one to four colonies were resuspended in 5 mL of saline, and vortexed for 15 sec. […] For most yeast and mold cultures, the optical density (OD) of the suspension was adjusted to 0.11 in saline to provide 0.4×10^6 CFU/mL. However, for Fusarium moniliforme and Pseudallescheria boydii the OD of the suspension was adjusted to OD=0.17 to provide 0.4×10^6 CFU/mL. […]

Test [2] concerns C. parapsilosis ATCC 22019. Put plainly: Checkerboard MIC assay, FICI. Format: cell-based, Candida parapsilosis. As to conditions: combination with Compound 1; C. parapsilosis ATCC 22019.
Description: as §1

Turning to `C[C@@H]1[C@H](O)[C@@H](C)/C=C/C=C/C=C/C=C/C=C/C=C/C=C/[C@H](O[C@@H]2O[C@H](C)[C@@H](O)[C@H](N)[C@@H]2O)C[C@@H]2O[C@](O)(C[C@@H](O)C[C@@H](O)[C@H](O)CC[C@@H](O)C[C@@H](O)CC(=O)O[C@H]1C)C[C@H](O)[C@H]2C(=O)O` [Amphotericin B], the FICI in test [1] is listed as 0.19; in test [2], 0.28.
The like results for `C[C@@H]1[C@H](O)[C@@H](C)/C=C/C=C/CC/C=C/C=C/C=C/C=C/C(O[C@H]2O[C@H](C)[C@@H](O)[C@H](N)[C@@H]2O)CC2O[C@](O)(CC(O)C(O)CCC(O)CC(O)CC(O)CC(=O)O[C@H]1C)CC(O)C2C(=O)O` (stereo partly shown) [Nystatin] were, in that order, 0.31 and 0.31.
